# Measurements published in patent US12171756B2, “NLRP3 modulators” (Innate Tumor Immunity, Inc., priority 2017, dated 2024).
# Assays:
# [1] = tested on: IL-1β production in PMA-differentiated THP-1 cells; assay: Measurement of IL-1β production in PMA-differentiated THP-1 cells (ELISA, 4 hours); format: cell-based, human; conditions: Homo sapiens, THP-1, human IL-1β production, assayed using one or more of the described procedures, read-out: NLRP3 hIL1B IC50
# Description: Measurement of IL-1β Production in PMA-Differentiated THP-1 Cells THP-1 cells were purchased from the American Type Culture Collection and sub-cultured according to instructions from the supplier. Prior to experiments, cells were cultured in RPMI 1640 containing 10% heat inactivated FBS, penicillin (100 units/ml) and streptomycin (100 μg/ml), and maintained in log phase prior to experimental setup. Prior to the experiment THP-1 were treated with PMA (Phorbol 12-myristate 13-acetate) (10 μg/ml) for 24 hours. The day of the experiment the media was removed and attaching cells were treated with trypsin for 2 minutes, cells were then collected, washed with PBS (phosphate buffer saline), spin down, resuspended in 2% heat inactivated FBS with RPMI at a concentration of 1×10^6 cells/ml, and 100 μl was plated in a 96 well plate. Compounds were dissolved in dimethyl sulfoxide (DMSO) and added to the culture medium to achieve desired concentration (e.g. 100, 30, 10, 3, 1, 0.3 or 0.1 μM). Cells were incubated with compounds for 4 hours. Cell free supernatant was collected and the production of IL-1β was evaluated by ELISA. A vehicle only control was run concurrently with each experiment. Final DMSO concentration was 1%.
# human TLR8 = target: T1, human TLR8 (Homo sapiens, UniProt Q9NR97); assay: In vitro human TLR8 binding reporter assay (HEK-Blue, NF-kB/AP1-inducible SEAP); format: cell-based; conditions: HEK-Blue human TLR8 SEAP reporter cells; activity range classes; read-out: TLR8 Agonist EC50
# T1 construct: host or cells: human HEK-Blue cells (HEK293-derived) co-expressing TLR8 and an NF-kB/AP1-inducible SEAP reporter
# T1 sequence (Q9NR97 27-1041): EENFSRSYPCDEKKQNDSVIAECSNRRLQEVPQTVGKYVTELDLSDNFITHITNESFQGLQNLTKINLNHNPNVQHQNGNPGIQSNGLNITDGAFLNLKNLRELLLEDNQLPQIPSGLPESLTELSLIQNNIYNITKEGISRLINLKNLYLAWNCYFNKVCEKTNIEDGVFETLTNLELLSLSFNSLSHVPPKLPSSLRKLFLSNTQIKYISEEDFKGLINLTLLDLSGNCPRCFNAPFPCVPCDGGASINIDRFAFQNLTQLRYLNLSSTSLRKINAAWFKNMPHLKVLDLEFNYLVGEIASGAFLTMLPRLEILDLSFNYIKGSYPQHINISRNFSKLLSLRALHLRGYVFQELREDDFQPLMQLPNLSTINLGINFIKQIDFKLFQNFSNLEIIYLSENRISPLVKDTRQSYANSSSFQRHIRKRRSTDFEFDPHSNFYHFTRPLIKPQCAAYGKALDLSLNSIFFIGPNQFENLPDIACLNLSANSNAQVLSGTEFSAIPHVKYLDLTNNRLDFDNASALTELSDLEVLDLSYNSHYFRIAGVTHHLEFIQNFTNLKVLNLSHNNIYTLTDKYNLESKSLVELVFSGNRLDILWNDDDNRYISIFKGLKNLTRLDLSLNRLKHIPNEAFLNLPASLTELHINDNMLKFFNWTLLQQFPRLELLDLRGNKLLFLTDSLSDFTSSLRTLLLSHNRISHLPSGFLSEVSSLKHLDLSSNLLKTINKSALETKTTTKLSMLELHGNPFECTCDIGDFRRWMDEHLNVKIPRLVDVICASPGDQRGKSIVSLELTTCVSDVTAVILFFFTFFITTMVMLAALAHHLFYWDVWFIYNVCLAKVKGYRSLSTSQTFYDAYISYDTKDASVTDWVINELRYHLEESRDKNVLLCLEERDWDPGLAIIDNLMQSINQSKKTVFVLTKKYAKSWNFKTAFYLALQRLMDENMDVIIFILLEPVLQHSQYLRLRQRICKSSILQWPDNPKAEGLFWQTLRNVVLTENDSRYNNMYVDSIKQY
# Description: (§1) In Vitro Human TLR7 and TLR8 Binding Reporter Assays
# (§2) Logarithmically-growing human HEK-Blue cells co-expressing a TLR7 or TLR8 gene and a NF-kB/AP1-inducible SEAP (secreted embryonic alkaline phosphatase; Invivogen, San Diego, CA) reporter gene are added to individual wells of a 384-well plate (15,000 cells per 20 μL per well) and maintained for 24 h at 37° C., 5% CO2. Test compounds or DMSO are distributed to separate wells the next day using acoustic liquid handling technology (100 nL per well) and cells are subsequently incubated for 18 h at 37° C., 5% CO2. Cellular SEAP production is measured using an Envision plate reader instrument thirty minutes after adding freshly-made Quanti-Blue reagent (prepared by following manufacturer instructions; Invivogen, San Diego, CA) to the HEK-Blue TLR Nf-kB-SEAP cell reactions. All EC50 values (half-maximal effective concentration) are determined using proprietary data analysis software. Normalized EC50 value=absolute value determined by setting 100% Ymax using a reference standard RLU (relative light unit) values from cells treated with 50 μM of the reference standard.
# human TLR7 = target: T2, human TLR7 (Homo sapiens, UniProt Q9NYK1); assay: In vitro human TLR7 binding reporter assay (HEK-Blue, NF-kB/AP1-inducible SEAP); format: cell-based; conditions: HEK-Blue human TLR7 SEAP reporter cells; activity range classes; read-out: TLR7 Agonist EC50
# T2 construct: host or cells: human HEK-Blue cells (HEK293-derived) co-expressing TLR7 and an NF-kB/AP1-inducible SEAP reporter
# T2 sequence (Q9NYK1 27-1049): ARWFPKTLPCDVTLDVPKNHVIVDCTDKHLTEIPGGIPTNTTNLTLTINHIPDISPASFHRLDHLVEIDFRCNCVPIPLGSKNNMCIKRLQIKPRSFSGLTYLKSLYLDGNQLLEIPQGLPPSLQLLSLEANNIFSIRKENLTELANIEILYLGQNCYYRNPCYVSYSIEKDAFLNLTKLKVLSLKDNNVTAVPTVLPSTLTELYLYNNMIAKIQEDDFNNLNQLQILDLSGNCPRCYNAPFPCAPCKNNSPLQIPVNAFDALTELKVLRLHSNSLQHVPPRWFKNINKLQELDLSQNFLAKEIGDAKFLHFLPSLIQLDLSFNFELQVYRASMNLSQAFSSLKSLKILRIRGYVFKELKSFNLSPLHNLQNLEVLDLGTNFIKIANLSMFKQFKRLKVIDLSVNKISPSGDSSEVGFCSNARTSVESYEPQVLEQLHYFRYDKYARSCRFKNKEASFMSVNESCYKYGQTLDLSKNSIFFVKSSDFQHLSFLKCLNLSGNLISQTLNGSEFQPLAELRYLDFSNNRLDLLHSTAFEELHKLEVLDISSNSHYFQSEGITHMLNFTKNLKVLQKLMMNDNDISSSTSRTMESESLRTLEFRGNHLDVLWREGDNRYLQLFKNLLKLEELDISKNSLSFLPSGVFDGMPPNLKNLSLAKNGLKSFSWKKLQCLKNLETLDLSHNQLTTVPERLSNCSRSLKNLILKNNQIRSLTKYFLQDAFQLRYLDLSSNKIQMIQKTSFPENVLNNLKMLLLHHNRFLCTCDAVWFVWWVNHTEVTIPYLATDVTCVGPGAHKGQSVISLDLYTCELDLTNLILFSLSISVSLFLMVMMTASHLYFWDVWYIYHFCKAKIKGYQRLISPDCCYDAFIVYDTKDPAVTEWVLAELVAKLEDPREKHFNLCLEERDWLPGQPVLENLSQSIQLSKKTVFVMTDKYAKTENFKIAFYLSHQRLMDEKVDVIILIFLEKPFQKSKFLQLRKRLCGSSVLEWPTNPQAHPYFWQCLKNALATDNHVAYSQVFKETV
# Description: as §1, §2
IC50 [1] [µM],EC50 (human TLR8) [µM],EC50 (human TLR7) [µM],SMILES
0.63,> 100,> 100,Nc1cc(OCC2(CO)CCC2)c2ccc(-c3ccn[nH]3)cc2n1 [Compound 335]
1.18,> 100,> 100,"Nc1cc(-c2cn[nH]c2)c2ccc(-c3ccn[nH]3)cc2n1 [Compound 347, 4-(1H-pyrazol-4-yl)-7-(1H-pyrazol-5-yl)quinolin-2-amine]"
9.72,> 100,> 100,Nc1cc(OCCCCN2CCS(=O)(=O)CC2)c2ccc(-c3ccn[nH]3)cc2n1 [Compound 180]
1.38,> 100,> 100,"Nc1nc2cc(-c3cc[nH]n3)ccc2cc1CCCCO [Compound 102, 4-[2-amino-7-(1H-pyrazol-3-yl)quinolin-3-yl]butan-1-ol]"
1.31,> 100,> 100,Nc1cc(OCC2(CO)COC2)c2ccc(-c3ccn[nH]3)cc2n1 [Compound 333]
27.7,> 100,> 100,COc1cc2c(NCCCO)cc(N)nc2cc1-c1ccn[nH]1 [Compound 320]
11.4,> 100,> 100,Nc1cc(OCCN2CCNC2=O)c2ccc(-c3ccn[nH]3)cc2n1 [Compound 198]
1.57,> 100,> 100,Nc1cc(NC2COC2)c2ccc(-c3ccn[nH]3)cc2n1 [Compound 280]
0.57,> 100,> 100,Nc1cc(NCCc2nccs2)c2ccc(-n3cccn3)cc2n1 [Compound 297]
2.55,> 100,> 100,Nc1cc(N2CCC(O)CC2)c2ccc(-c3ccn[nH]3)cc2n1 [Compound 145]
0.66,> 100,> 100,Nc1cc(OCc2cccnc2)c2ccc(-c3ccn[nH]3)cc2n1 [Compound 190]
1.19,> 100,> 100,"Nc1cc(CCCCO)c2ccc(-c3ccn[nH]3)cc2n1 [Compound 218, 4-(2-amino-7-(1H-pyrazol-5-yl)quinolin-4-yl)butan-1-ol]"
1.89,> 100,> 100,"Nc1cc(OC(CO)CO)c2ccc(-c3ccn[nH]3)cc2n1 [Compound 202, 2-((2-amino-7-(1H-pyrazol-5-yl)quinolin-4-yl)oxy)propane-1,3-diol]"
9.27,> 100,> 100,Nc1cc(NCCCNC(=O)c2cccnc2)c2ccc(-c3ccn[nH]3)cc2n1 [Compound 212]
3.82,> 100,> 100,"Nc1nc2cc(-c3cc[nH]n3)ccc2cc1CCCCCOCc1ccccc1 [Compound 106, 3-[5-(benzyloxy)pentyl]-7-(1H-pyrazol-3-yl)quinolin-2-amine]"
1.03,> 100,> 100,Nc1cc(NCCn2ccnc2)c2ccc(-c3ccn[nH]3)cc2n1 [Compound 152]
20.8,> 100,> 100,Cc1nc(C(=O)NCCCNc2cc(N)nc3cc(-c4ccn[nH]4)ccc23)c(C)s1 [Compound 210]
0.05,> 100,> 100,Nc1cc(NCCn2cccn2)c2ccc(-n3cccn3)cc2n1 [Compound 302]
0.41,> 100,> 100,"Nc1cc(OCCCCO)c2ccc(-c3ccn[nH]3)cc2n1 [Compound 172, 4-((2-amino-7-(1H-pyrazol-5-yl)quinolin-4-yl)oxy)butan-1-ol]"
0.97,> 100,> 100,Nc1cc(NC[C@@H]2COCCN2)c2ccc(-c3ccn[nH]3)cc2n1 [Compound 268]
0.11,> 100,> 100,CC(C)(CO)COc1cc(N)nc2cc(-c3ccn[nH]3)ccc12 [Compound 310]
0.7,> 100,> 100,Nc1cc(NC[C@@H](O)CO)c2ccc(-c3ccn[nH]3)cc2n1 [Compound 287]
